Data reported in US8835447B2, “Method for treating androgen receptor positive cancers” (priority 2009, dated 2014).
Entries after “also recorded” stand apart in the source; their conditions may differ.

Tests used:
PSA levels = conditions: Phase I clinical trial, castration resistant PCa; cited from earlier work
AR LBD = target: T1, AR LBD (Homo sapiens, UniProt P10275); conditions: cited from earlier work
T1 sequence (P10275 1-920): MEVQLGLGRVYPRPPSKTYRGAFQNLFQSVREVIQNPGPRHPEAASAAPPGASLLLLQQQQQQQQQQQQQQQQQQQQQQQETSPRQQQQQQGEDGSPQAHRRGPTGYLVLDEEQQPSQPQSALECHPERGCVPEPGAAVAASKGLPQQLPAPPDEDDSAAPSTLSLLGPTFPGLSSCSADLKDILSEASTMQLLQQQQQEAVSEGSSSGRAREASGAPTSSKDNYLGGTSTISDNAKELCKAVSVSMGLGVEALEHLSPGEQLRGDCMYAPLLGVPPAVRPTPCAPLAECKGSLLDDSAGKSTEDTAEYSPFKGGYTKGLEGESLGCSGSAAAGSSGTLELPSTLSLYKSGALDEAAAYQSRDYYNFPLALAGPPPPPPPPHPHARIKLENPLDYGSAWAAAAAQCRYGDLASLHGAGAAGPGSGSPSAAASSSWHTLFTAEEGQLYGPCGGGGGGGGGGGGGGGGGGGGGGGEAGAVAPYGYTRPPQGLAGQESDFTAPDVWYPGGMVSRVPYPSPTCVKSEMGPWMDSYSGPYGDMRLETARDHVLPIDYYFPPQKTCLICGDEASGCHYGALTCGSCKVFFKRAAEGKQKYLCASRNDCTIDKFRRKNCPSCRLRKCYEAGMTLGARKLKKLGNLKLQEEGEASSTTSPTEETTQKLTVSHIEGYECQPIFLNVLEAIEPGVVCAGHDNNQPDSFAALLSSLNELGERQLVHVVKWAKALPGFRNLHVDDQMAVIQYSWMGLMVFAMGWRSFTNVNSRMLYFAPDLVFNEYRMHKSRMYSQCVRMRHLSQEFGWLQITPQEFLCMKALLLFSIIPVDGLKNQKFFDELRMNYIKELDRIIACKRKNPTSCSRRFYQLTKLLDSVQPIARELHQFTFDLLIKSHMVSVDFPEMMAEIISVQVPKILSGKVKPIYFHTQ

Microsomal stability = type: in vitro ADME; conditions: 1 hour incubation with rat microsomes
Protocol: Five hit compounds, representing both the ARTIS and ARTIK categories (c6, c11, c17, c52 and c85), were selected for in vivo tests based on all of the previous assays. Compound c5 was rejected due to very low microsomal stability (<5% after 1 hour incubation with rat microsomes). The toxicity of the compounds was evaluated in a dose escalation assay in which male NIH Swiss mice (n=4) received three sequential intraperitoneal (i.p.) injections of each compound delivered in 3 day intervals. The first dose was 20-fold higher than the in vitro IC50 (20×IC50) for the compound in CWR22R cells recalculated based on mouse weight (see Example 1) and the second and third doses were 50×IC50 and 100×IC50, respectively. On the day after the last injection, half of the mice in each group were sacrificed for gross pathology examination and collection of blood for serum biochemistry assays, which include total protein, glucose, bilirubin, and creatinine levels, activity of liver enzymes, and ion concentrations. The remaining mice were sacrificed and evaluated similarly 7 days after the last compound injection. […] A minor decrease in serum glucose concentration (70-80% of control) was observed on the day after the last compound injection in almost all mice, but glucose levels were normal a week later (data not shown). […]

[1] = test system: AR-expressing PCa cell lines (LNCaP, C4-2, CWR22R); experiment: Toxicity to AR-expressing PCa cell lines (colony formation / dose-dependent growth inhibition); type: cell-based, human
Protocol: (§1) Cell Colony Assay: Cells were plated in 24-well plates at a density allowing 6-7 days of exponential growth before confluency. Medium and compound was replaced every 48 hours to minimize the effect of potential compound instability. After 7 days of incubation in the presence of compound, cells were fixed and stained with methylene blue, followed by extraction of the stain with 1% SDS and spectrophotometry at 650 nm. Each assay was run in triplicate and the difference between control and compound-treated wells was determined using Student's t-test.
Dose-dependent inhibition of cell growth: Cells were plated at 1×10^3 cells per well in 96-well plates. Compounds were added in a dose range from 1 to 20000 nM in two-fold increments. Each dose was tested in triplicate. Controls were 0.1% DMSO (no effect on cell viability) and 50 μM 9-aminoacridine (complete cell death). Cells were incubated for 6 days and then fixed and stained with methylene blue, followed by extraction of the stain with 1% SDS and spectrophotometry at 650 nm. The assay was run two times and, based on the results, the inhibitory concentration of compound suppressing cell growth by 50% as compared to DMSO (IC50) was calculated by the sigmoid approximation method using CalcuSyn software (Biosoft, Chembridge, UK). Confidence intervals were calculated for each sigmoid.
This Example provides a description of the effect of the selected compounds on the growth of PCa cells. To test the toxicity of the identified AR inhibitors towards cells of different origins, we performed colony formation assays using a single dose of each compound (10 μM) on several PCa (LNCaP, C4-2, CWR22R and DU145) and two non-PCa (HT1080 and HeLa) cell lines (FIG. 2A). […] These compounds were not weaker inhibitors of AR transcriptional activity in CWR22R or C4-2 cells than compounds that inhibited growth of the cells. […]

CWR22R cells = experiment: Cell cycle distribution by propidium iodide staining; type: cell-based, human
Protocol: Analysis of cell cycle distribution was based on staining of DNA content by propidium iodide. 10^5 cells were removed from culture dishes using trypsin, washed with PBS and resuspended in 300 μl 3% BSA in PBS, followed by addition of […] 70% ethanol. Cells were kept at −20° C. for several hours and then stained with 10 μg/ml propidium iodide in the presence of 30 μg/ml RNase A for 2 hrs at 37° C. DNA content was assessed using a FACS Calibur instrument and CellQuest software (Becton Dickinson, Franklin Lakes, N.J.).
To test this possibility, we assessed the cell cycle distribution of CWR22R cells treated with both categories of compounds. […] Therefore, different subsets of compounds inhibiting AR-dependent transcription in androgen-independent PCa cells cause either growth arrest or apoptosis in these cells. Whether a compound causes growth arrest or apoptosis is not determined by the potency of the compound as an inhibitor of AR-dependent transcription (i.e., FIG. 2B).

[2] = test system: HT1080, HeLa and DU145 cells; experiment: Colony formation assay, non-PCa and AR-negative PCa cells; type: cell-based, human; conditions: 10 μM, 7 days
Protocol: as §1
This Example provides a description of the effect of the selected compounds on the growth of PCa cells. To test the toxicity of the identified AR inhibitors towards cells of different origins, we performed colony formation assays using a single dose of each compound (10 μM) on several PCa (LNCaP, C4-2, CWR22R and DU145) and two non-PCa (HT1080 and HeLa) cell lines (FIG. 2A). […] These compounds were not weaker inhibitors of AR transcriptional activity in CWR22R or C4-2 cells than compounds that inhibited growth of the cells.

SMILES: CNC(=O)c1ccc(N2C(=S)N(c3ccc(C#N)c(C(F)(F)F)c3)C(=O)C2(C)C)cc1F [MDV3100]
- PSA levels in patients (PSA levels): demonstrated efficacy in decreasing PSA levels

SMILES: CNC(=O)c1ccc(N2C(=S)N(c3ccc(C#N)c(C(F)(F)F)c3)C(=O)C23CCC3)cc1F [RD162]
- partial agonist activity on AR (AR LBD): not displayed
- binding to the AR LBD (AR LBD; non-competitive antagonists): bind with high affinity to the AR LBD

SMILES: O=C1N=C(Nc2cccc(Cl)c2Cl)SC1=Cc1ccco1 [c5]
- microsomal stability, compound left (Microsomal stability): < 5%
- toxicity towards AR-expressing PCa cell lines ([1]; colony formation, 10 μM, three AR-expressing PCa cell lines): different degrees of toxicity; also recorded: suppress growth of all
- degree of toxicity to PCa cells (killing vs reduced growth) ([1]; dose-dependent toxicity, by day 7): reduced growth as compared to untreated control cells, but not obvious cell death
- changes in cell cycle distribution (CWR22R cells; increase in G1, decrease in S phase): cell cycle arrest
- cells with sub-G1 DNA content (apoptotic) (CWR22R cells; propidium iodide FACS): did not result in appearance of cells with sub-G1 DNA content
- growth of / toxicity towards non-PCa cells or AR-negative PCa cells (DU145) [2]: no toxicity
